ChEMBL document CHEMBL4507275, “Data for DCP probe BI-2545” (2021)

What was measured:
[1] = system: ALK tyrosine kinase receptor (Homo sapiens), Q9UM73 [C1156Y]; conditions: Compound concentration 1000.0 nM
[2] = molecular target: T1, Alpha-1A adrenergic receptor (Homo sapiens) (UniProt P35348); conditions: Compound concentration 10.0 uM
T1 sequence (whole entry): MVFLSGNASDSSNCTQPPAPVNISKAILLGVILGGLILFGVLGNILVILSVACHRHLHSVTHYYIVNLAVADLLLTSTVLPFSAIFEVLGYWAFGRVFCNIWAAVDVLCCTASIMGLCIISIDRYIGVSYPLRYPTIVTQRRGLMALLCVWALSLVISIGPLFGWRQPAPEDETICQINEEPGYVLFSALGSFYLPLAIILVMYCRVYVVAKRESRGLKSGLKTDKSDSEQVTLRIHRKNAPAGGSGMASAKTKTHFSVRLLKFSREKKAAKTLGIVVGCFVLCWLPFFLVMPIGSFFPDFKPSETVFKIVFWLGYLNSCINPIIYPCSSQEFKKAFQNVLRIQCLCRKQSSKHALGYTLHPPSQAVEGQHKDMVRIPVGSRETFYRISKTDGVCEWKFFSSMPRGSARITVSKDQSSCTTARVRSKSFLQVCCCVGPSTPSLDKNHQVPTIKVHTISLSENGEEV

[3] = molecular target: Serine/threonine-protein kinase 17B (Homo sapiens) (UniProt O94768); conditions: Compound concentration 1000.0 nM
[4] = molecular target: Delta-type opioid receptor (Homo sapiens) (UniProt P41143); conditions: Compound concentration 10.0 uM
[5] = system: Receptor-type tyrosine-protein kinase FLT3 (Homo sapiens), P36888 [N841I]; conditions: Compound concentration 1000.0 nM
[6] = molecular target: TGF-beta receptor type-1 (Homo sapiens) (UniProt P36897); conditions: Compound concentration 1000.0 nM
[7] = molecular target: Tyrosine-protein kinase Blk (Homo sapiens) (UniProt P51451); conditions: Compound concentration 1000.0 nM
[8] = molecular target: Casein kinase I isoform gamma-1 (Homo sapiens) (UniProt Q9HCP0); conditions: Compound concentration 1000.0 nM
[9] = molecular target: Casein kinase I isoform delta (Homo sapiens) (UniProt P48730); conditions: Compound concentration 1000.0 nM
[10] = molecular target: Ribosomal protein S6 kinase alpha-3 (Homo sapiens) (UniProt P51812); conditions: Compound concentration 1000.0 nM
[11] = molecular target: Serine/threonine-protein kinase DCLK3 (Homo sapiens) (UniProt Q9C098); conditions: Compound concentration 1000.0 nM
[12] = molecular target: Phosphatidylinositol 5-phosphate 4-kinase type-2 gamma (Homo sapiens) (UniProt Q8TBX8); conditions: Compound concentration 1000.0 nM
[13] = molecular target: Serine/threonine-protein kinase PAK 1 (Homo sapiens) (UniProt Q13153); conditions: Compound concentration 1000.0 nM
[14] = system: Phosphatidylinositol 4,5-bisphosphate 3-kinase catalytic subunit alpha isoform (Homo sapiens), P42336 [C420R]; conditions: Compound concentration 1000.0 nM
[15] = system: Receptor-type tyrosine-protein kinase FLT3 (Homo sapiens), P36888 [D835H]; conditions: Compound concentration 1000.0 nM
[16] = molecular target: NUAK family SNF1-like kinase 1 (Homo sapiens) (UniProt O60285); conditions: Compound concentration 1000.0 nM
[17] = molecular target: Receptor tyrosine-protein kinase erbB-2 (Homo sapiens) (UniProt P04626); conditions: Compound concentration 1000.0 nM
[18] = system: Epidermal growth factor receptor (Homo sapiens), P00533 [L861Q]; conditions: Compound concentration 1000.0 nM
[19] = molecular target: Serine/threonine-protein kinase LATS2 (Homo sapiens) (UniProt Q9NRM7); conditions: Compound concentration 1000.0 nM
[20] = molecular target: Activin receptor type-2A (Homo sapiens) (UniProt P27037); conditions: Compound concentration 1000.0 nM
[21] = molecular target: RAC-gamma serine/threonine-protein kinase (Homo sapiens) (UniProt Q9Y243); conditions: Compound concentration 1000.0 nM
[22] = system: Receptor-type tyrosine-protein kinase FLT3 (Homo sapiens), P36888 [UNDEFINED MUTATION]; conditions: Compound concentration 1000.0 nM
[23] = molecular target: Dual specificity tyrosine-phosphorylation-regulated kinase 2 (Homo sapiens) (UniProt Q92630); conditions: Compound concentration 1000.0 nM
[24] = molecular target: Dual specificity mitogen-activated protein kinase kinase 7 (Homo sapiens) (UniProt O14733); conditions: Compound concentration 1000.0 nM
[25] = molecular target: Tyrosine-protein kinase ZAP-70 (Homo sapiens) (UniProt P43403); conditions: Compound concentration 1000.0 nM
[26] = molecular target: Cytoplasmic tyrosine-protein kinase BMX (Homo sapiens) (UniProt P51813); conditions: Compound concentration 1000.0 nM
[27] = molecular target: Interleukin-1 receptor-associated kinase 1 (Homo sapiens) (UniProt P51617); conditions: Compound concentration 1000.0 nM
[28] = molecular target: SNF-related serine/threonine-protein kinase (Homo sapiens) (UniProt Q9NRH2); conditions: Compound concentration 1000.0 nM
[29] = molecular target: Dual specificity mitogen-activated protein kinase kinase 3 (Homo sapiens) (UniProt P46734); conditions: Compound concentration 1000.0 nM
[30] = molecular target: Serine/threonine-protein kinase NIM1 (Homo sapiens) (UniProt Q8IY84); conditions: Compound concentration 1000.0 nM
[31] = molecular target: Sodium-dependent serotonin transporter (Homo sapiens) (UniProt P31645); conditions: Compound concentration 10.0 uM
[32] = molecular target: Tyrosine-protein kinase Fes/Fps (Homo sapiens) (UniProt P07332); conditions: Compound concentration 1000.0 nM
[33] = molecular target: Dual specificity protein kinase CLK1 (Homo sapiens) (UniProt P49759); conditions: Compound concentration 1000.0 nM
[34] = system: Tyrosine-protein kinase ABL1 (Homo sapiens), P00519 [F317L]; conditions: Compound concentration 1000.0 nM
[35] = molecular target: Citron Rho-interacting kinase (Homo sapiens) (UniProt O14578); conditions: Compound concentration 1000.0 nM
[36] = molecular target: Mitogen-activated protein kinase 6 (Homo sapiens) (UniProt Q16659); conditions: Compound concentration 1000.0 nM
[37] = system: Phosphatidylinositol 4,5-bisphosphate 3-kinase catalytic subunit alpha isoform (Homo sapiens), P42336 [M1043I]; conditions: Compound concentration 1000.0 nM
[38] = molecular target: Serine/threonine-protein kinase Nek10 (Homo sapiens) (UniProt Q6ZWH5); conditions: Compound concentration 1000.0 nM

Chain of Serine/threonine-protein kinase PAK 1 (Homo sapiens) (Q13153 whole entry, canonical isoform): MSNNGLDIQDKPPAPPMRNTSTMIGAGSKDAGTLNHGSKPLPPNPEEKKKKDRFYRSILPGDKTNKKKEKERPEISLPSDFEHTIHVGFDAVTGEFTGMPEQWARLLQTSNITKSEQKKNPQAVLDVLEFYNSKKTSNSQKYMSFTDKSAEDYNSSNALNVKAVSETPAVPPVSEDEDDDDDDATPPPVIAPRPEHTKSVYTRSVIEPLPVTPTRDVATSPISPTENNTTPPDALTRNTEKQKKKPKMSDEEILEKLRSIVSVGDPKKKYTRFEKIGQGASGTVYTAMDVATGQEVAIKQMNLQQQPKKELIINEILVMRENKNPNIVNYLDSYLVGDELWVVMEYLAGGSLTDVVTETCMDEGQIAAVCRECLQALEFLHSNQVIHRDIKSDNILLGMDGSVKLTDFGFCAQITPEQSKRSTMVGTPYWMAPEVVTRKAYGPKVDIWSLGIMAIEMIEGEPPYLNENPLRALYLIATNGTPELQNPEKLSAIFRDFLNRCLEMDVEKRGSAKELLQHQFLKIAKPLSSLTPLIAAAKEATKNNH
Chain of Tyrosine-protein kinase Fes/Fps (Homo sapiens) (P07332 whole entry): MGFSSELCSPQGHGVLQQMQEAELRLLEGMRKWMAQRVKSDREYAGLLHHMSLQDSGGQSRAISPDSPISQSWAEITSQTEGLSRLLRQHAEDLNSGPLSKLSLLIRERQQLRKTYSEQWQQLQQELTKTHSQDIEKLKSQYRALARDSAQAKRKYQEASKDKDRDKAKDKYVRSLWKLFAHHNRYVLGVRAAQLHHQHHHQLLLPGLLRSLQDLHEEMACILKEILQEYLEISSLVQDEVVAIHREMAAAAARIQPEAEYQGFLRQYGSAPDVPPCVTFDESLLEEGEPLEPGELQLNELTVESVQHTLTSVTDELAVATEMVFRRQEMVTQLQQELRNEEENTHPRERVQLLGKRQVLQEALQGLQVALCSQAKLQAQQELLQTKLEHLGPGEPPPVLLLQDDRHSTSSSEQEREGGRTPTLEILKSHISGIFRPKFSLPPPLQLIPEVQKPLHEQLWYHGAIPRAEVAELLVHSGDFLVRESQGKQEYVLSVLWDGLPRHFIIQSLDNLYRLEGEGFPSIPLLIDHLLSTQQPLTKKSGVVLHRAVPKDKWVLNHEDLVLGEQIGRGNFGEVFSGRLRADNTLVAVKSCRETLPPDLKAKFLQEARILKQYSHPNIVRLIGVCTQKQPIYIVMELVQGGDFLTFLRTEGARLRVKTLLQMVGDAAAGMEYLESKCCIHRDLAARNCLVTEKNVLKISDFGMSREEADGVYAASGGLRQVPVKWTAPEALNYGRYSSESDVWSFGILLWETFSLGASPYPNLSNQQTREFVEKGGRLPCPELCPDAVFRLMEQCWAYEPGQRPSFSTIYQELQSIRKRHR
Chain of Interleukin-1 receptor-associated kinase 1 (Homo sapiens) (P51617 whole entry, looked up): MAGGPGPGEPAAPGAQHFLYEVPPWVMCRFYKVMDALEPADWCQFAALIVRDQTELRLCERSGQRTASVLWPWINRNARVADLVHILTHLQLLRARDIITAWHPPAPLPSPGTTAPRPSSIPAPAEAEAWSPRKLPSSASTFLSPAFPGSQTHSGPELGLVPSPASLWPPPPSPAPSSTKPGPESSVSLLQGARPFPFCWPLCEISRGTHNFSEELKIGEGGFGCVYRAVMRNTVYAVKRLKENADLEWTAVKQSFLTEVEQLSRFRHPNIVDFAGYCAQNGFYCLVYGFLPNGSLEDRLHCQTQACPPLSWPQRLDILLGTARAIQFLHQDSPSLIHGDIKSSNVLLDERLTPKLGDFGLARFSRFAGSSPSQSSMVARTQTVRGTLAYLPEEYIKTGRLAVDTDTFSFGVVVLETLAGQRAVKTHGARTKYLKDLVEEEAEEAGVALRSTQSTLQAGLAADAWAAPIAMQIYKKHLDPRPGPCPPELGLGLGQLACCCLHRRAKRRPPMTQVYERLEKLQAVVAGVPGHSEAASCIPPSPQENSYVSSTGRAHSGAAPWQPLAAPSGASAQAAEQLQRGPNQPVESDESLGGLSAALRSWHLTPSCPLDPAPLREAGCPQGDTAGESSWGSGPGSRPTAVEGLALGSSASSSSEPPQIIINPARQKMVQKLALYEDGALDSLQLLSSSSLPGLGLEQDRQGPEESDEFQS
Chain of Serine/threonine-protein kinase DCLK3 (Homo sapiens) (Q9C098 whole entry): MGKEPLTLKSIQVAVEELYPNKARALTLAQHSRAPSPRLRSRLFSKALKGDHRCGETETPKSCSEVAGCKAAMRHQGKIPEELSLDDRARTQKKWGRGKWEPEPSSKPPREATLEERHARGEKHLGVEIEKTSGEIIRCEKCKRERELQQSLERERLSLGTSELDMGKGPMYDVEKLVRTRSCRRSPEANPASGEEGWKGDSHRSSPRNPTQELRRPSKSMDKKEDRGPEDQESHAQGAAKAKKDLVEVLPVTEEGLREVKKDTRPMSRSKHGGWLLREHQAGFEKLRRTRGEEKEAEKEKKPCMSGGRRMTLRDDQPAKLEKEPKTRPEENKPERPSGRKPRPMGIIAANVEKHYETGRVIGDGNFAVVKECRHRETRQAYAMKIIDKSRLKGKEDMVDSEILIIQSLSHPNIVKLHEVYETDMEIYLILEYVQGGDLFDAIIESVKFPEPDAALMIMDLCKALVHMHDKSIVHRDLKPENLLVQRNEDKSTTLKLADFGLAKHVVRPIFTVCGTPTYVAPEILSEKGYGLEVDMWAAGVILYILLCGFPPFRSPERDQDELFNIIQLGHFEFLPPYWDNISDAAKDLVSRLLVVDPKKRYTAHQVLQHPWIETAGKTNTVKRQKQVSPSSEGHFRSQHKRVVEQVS
Chain of Tyrosine-protein kinase Blk (Homo sapiens) (P51451 2-505 limits assumed): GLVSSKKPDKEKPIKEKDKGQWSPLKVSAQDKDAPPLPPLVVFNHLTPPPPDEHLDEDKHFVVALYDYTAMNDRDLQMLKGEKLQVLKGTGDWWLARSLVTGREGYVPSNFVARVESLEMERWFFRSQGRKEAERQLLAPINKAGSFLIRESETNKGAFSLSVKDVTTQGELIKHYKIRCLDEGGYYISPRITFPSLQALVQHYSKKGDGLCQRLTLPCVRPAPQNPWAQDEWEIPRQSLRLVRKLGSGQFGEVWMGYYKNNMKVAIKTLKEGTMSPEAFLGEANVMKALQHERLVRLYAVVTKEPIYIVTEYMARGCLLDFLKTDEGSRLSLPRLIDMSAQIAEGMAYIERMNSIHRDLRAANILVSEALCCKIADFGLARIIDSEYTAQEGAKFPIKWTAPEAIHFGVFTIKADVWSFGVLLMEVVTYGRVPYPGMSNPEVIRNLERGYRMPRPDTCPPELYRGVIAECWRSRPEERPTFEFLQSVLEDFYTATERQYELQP
Chain of Phosphatidylinositol 5-phosphate 4-kinase type-2 gamma (Homo sapiens) (Q8TBX8 whole entry): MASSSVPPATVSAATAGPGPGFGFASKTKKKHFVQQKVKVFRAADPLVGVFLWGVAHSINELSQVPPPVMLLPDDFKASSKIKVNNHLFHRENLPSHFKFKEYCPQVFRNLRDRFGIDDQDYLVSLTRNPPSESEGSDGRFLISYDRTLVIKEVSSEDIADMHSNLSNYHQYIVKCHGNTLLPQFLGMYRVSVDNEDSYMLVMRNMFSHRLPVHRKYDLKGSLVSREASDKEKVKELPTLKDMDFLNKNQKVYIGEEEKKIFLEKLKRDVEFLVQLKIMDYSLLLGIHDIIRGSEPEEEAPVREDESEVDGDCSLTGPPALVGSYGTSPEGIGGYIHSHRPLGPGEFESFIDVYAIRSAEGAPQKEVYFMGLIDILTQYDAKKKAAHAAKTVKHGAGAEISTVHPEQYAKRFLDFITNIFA
Chain of Phosphatidylinositol 4,5-bisphosphate 3-kinase catalytic subunit alpha isoform (Homo sapiens), P42336 [M1043I] (P42336 whole entry M1043I, canonical isoform): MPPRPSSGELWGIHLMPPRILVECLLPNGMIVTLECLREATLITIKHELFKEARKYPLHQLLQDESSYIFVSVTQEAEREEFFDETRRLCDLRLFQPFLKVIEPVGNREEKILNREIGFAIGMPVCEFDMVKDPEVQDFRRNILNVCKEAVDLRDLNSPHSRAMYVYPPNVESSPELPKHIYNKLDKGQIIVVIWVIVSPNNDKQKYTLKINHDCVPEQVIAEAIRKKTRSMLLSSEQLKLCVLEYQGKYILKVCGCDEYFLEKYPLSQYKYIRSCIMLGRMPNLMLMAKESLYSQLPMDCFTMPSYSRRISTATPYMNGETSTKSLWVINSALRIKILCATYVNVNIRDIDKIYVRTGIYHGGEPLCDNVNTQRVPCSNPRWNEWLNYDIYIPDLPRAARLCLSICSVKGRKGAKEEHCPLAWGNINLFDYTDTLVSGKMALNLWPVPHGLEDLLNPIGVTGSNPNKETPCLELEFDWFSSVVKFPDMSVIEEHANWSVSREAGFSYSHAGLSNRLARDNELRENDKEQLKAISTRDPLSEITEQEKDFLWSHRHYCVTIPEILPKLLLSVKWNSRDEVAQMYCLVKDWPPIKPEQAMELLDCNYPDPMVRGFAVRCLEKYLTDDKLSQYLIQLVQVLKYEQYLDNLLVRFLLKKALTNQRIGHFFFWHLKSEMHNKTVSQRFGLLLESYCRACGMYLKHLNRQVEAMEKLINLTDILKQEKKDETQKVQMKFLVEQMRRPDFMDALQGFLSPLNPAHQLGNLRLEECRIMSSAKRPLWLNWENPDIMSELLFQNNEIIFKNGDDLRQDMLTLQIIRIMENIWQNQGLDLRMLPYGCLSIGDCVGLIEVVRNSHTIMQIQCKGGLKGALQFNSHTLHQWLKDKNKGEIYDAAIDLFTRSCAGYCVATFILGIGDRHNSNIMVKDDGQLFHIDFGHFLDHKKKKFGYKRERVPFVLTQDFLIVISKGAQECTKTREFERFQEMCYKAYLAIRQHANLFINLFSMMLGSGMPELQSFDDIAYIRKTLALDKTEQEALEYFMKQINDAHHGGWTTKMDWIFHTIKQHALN
Chain of Phosphatidylinositol 4,5-bisphosphate 3-kinase catalytic subunit alpha isoform (Homo sapiens), P42336 [C420R] (P42336 whole entry C420R, canonical isoform): as the sequence (P42336 whole entry M1043I, canonical isoform) above, with C420R, I1043M counted along it

O=C(NC[C@@H]1[C@H]2CN(C(=O)OCc3cc(C(F)(F)F)cc(C(F)(F)F)c3)C[C@@H]12)c1ccc2[nH]nnc2c1 [BI 2545]
inactive: residual activity [1] 94% | inhibition [2] 4.06% | residual activity [3] 91% | inhibition [4] 19.6% | residual activity [5] 90% | residual activity [6] 97% | residual activity [7] 100% | residual activity [8] 97% | residual activity [9] 100% | residual activity [10] 89% | residual activity [11] 100% | residual activity [12] 100% | residual activity [13] 100% | residual activity [14] 95% | residual activity [15] 100% | residual activity [16] 87% | residual activity [17] 100% | residual activity [18] 100% | residual activity [19] 86% | residual activity [20] 92% | residual activity [21] 87% | residual activity [22] 85% | residual activity [23] 77% | residual activity [24] 95% | residual activity [25] 60% | residual activity [26] 81% | residual activity [27] 98% | residual activity [28] 77% | residual activity [29] 93% | residual activity [30] 100% | inhibition [31] -9.34% | residual activity [32] 95% | residual activity [33] 87% | residual activity [34] 91% | residual activity [35] 100% | residual activity [36] 88% | residual activity [37] 95% | residual activity [38] 73%

Cc1nccc(COC(=O)N2C[C@@H]3[C@@H](CNC(=O)c4ccc5[nH]nnc5c4)[C@@H]3C2)n1 [BI 3017]
inactive: residual activity [1] 76% | inhibition [2] -3.15% | residual activity [3] 85% | inhibition [4] -1.41% | residual activity [5] 82% | residual activity [6] 100% | residual activity [7] 93% | residual activity [8] 100% | residual activity [9] 97% | residual activity [10] 86% | residual activity [11] 100% | residual activity [12] 100% | residual activity [13] 92% | residual activity [14] 97% | residual activity [15] 97% | residual activity [16] 82% | residual activity [17] 99% | residual activity [18] 100% | residual activity [19] 97% | residual activity [20] 69% | residual activity [21] 100% | residual activity [22] 100% | residual activity [23] 94% | residual activity [24] 100% | residual activity [25] 97% | residual activity [26] 88% | residual activity [27] 81% | residual activity [28] 98% | residual activity [29] 84% | residual activity [30] 87% | inhibition [31] -3.25% | residual activity [32] 99% | residual activity [33] 100% | residual activity [34] 70% | residual activity [35] 100% | residual activity [36] 93% | residual activity [37] 100% | residual activity [38] 92%
